Laboratory results: US20210283035A1, “AN ANTIMICROBIAL COMPOSITION” (Conopco, Inc., d/b/a UNILEVER, priority 2016, published 2021)

Test system: Malassezia furfur
Test: ΣFIC assay against Malassezia furfur (in-vitro susceptibility testing, alamar blue)
Assay type: cell-based
Conditions: CBS1878, active alone, M. furfur CBS 1878 in Pityrosporum Broth, 32° C., complete growth inhibition by alamar blue, read-out: Minimum Inhibition Concentration (MIC)
Experimental: A brief description of the method is given below.
Methods: ΣFIC Assay Against Malassezia furfur
They are then incubated at 32° C. for 48 hrs with shaking. Then, 1 ml of the first broth culture is transferred into 9 ml of fresh PB and incubated at 32° C. for 48 hrs with shaking. The final culture should contain 2 to 6×10^6 cells/ml. This is achieved by diluting using PB to 5*10^5 cell/ml.
Binary combinations of ZPTO and the testing compound were prepared in 96-well plate by mixing 20 μl of zinc pyrithione solution with 20 μl of testing compound. The solution in each well were further mixed with 160 μl of PB and 20 μl of M. furfur. The final cell density in the testing plate is around 5*10^4 cell/ml, and the final concentration of actives in each well of the 96-wel plate were shown below.
The plate was incubated at 32° C. for one day. Then 20 μl of alamar blue (0.01%) was added into each well with a further incubation for one day to observe the color change. Red color indicates microbial growth and the non-changing blue color indicates no growth.
The MIC is defined as the absolute lowest concentration of active that provides complete microbial growth inhibition as indicated by the blue color of alamar blue under the tested condition. […]

MIC [µg/mL] | Structure (SMILES)
500 | O=C(c1ccccc1)c1ccc(O)cc1O [benzophenone-1]
1000 | O=C(c1ccc(O)cc1O)c1ccc(O)cc1O [benzophenone-2]
